Measured values published in US6169076A, “P-Boronophenylalanine complexes with fructose and related carbohydrates and polyols” (Glcosyn Pharmaceuticals, Inc., priority 1999, dated 2001).
Values after ≈ are worked out from the molar mass of the structure shown. Counter-ions that a name gives are not always drawn.

Legend:
[1] = Complex formation constants of p-BPA with carbohydrates and polyols, by integration of aryl protons in the 1H NMR spectrum (D2O, pH buffered at 7.4); assay type: physicochemical; details: for log Keq (complex formation constant, disaccharides) / log Keq (complex formation constant, monosaccharides) / log Keq (complex formation constant, polyols): L-p-BPA, 1H NMR, D2O, pH buffered at 7.4; for difference in binding constants: maltulose, lactulose and fructose compared; for decrease in binding: C-3 hydroxyl unavailable; for decrease in the pKeq values of these complexes: C-6 hydroxyl eliminated from binding, relative to fructose; for binding with l-p-BPA / change in the 1H NMR spectrum of l-p-BPA: in words
Description: (§1) The ratio of free p-BPA to p-BPA:carbohydrate complex can be determined by integration of the aromatic protons resonances (p-BPA, 7.73 and 7.33 ppm; p-BPA-carbohydrate complex, 7.5 and 7.2 ppm) in the ^1 H NMR spectrum using D2 O buffered to physiological pH as the solvent. A minimum of five measurements for each carbohydrate at various concentrations and p-BPA:carbohydrate ratios were taken, and the equilibrium constant calculated (Table 1 and Table 2). Likewise, complex formation constants for p-BPA and some polyols have been calculated (Table 3).
^a All values were determined for L-p-BPA by integration of aryl
protons in the ^j H NMR spectrum (D2 O, pH buffered at 7.4).
^a All values were determined for L-p-BPA by intergration of aryl
protons in the ^l H NMR spectrum (D2 O, pH buffered at 7.4).
The strong correspondence between the NMR data obtained for the l-p-BPA-fructose complex at physiological pH and one of the complexes (e.g., as observed for p-tolylboronic acid with fructose at pD 11-12) was further investigated by a systematic study of the binding ability of fructose-containing disaccharides (Table 2). […] However, the presence of the added 4-O-glucosyl or galactosyl group had no positive effect on binding either.
While the hydroxyl at C-3 for turanose is eliminated from binding due to the presence of the glucosyl moiety, the C-3 hydroxyl of leucrose is also unavailable for binding due to a likely significant contribution from the conformation that places the glucosyl unit in an equatorial position, resulting in a diaxial orientation between the anomeric C-2 hydroxyl and C-3 hydroxyl axial. Loss in binding ability for leucrose can also be attributed to the fructose unit being locked in the less favored pyranose ring form.

[2] = patients injected with p-BPA solution of this acidity; cited from earlier work
[3] = 0.1 M solution; cited from earlier work
[4] = cited from earlier work
[5] = State of p-BPA in solution at pH 7.4 with strongly complexing or excess carbohydrate/polyol; assay type: physicochemical
Description: as §1

melanoma cells = details: in words; cited from earlier work
[6] = solution from current methods, roughly one equivalent of NaCl; cited from earlier work
[7] = intravenous; solution from current methods; cited from earlier work
murine melanoma model = details: systemic administration; cited from earlier work
[8] = Hydration of the freeze-dried solid with warm water and standing at room temperature; assay type: physicochemical
Experimental: ^10 B enriched l-p-boronophenylalanine (0.520 g) and d-fructose (0.473 g) was suspended in distilled water (3 mL), and l-p-boronophenylalanine was dissolved by addition of 0.5 M NaOH (5.3 mL) with gentle heating. The pH of this solution is typically between 8.5 and 9.0. […] The solution is removed from the resin, and any l-p-boronophenylalanine that is suspended can be redissolved with gentle warming of the solution. The room temperature solution was then filtered through a 0.2μ filter and then freeze-dried to give sodium l-p-boronophenylalanine-d-fructose complex (0.934 g). […] M.p. 90-93° C.

For OC[C@H]1O[C@@H](O[C@@H]2[C@@H](CO)OC(O)(CO)[C@H]2O)[C@H](O)[C@@H](O)[C@H]1O (mixture of isomers) [Lactulose], the “log Keq (complex formation constant, disaccharides)” value [1] was 3.0 and the “difference in binding constants” value [1] was “lack of appreciable difference in binding constants”.
For O=CC[C@@H](O)[C@H](O)[C@H](O)CO [2-Deoxyglucose], the “log Keq (complex formation constant, monosaccharides)” value [1] was less than 0.
In the case of OC[C@@H](O)[C@@H](O)[C@@H](O)CO [Adonitol], the “log Keq (complex formation constant, polyols)” value [1] is reported as 1.7.
In the case of O=C(CO)[C@@H](O)[C@H](O)[C@H](O)CO [Fructose], the “log Keq (complex formation constant, monosaccharides)” value [1] is reported as 3.2 and the “difference in binding constants” value [1] is reported as “lack of appreciable difference in binding constants”.
In the case of O=C[C@H](O)[C@@H](O)[C@@H](O)[C@H](O)CO [Galactose], the “log Keq (complex formation constant, monosaccharides)” value [1] is reported as 1.6.
For O=C[C@H](O)[C@@H](O)[C@H](O)[C@H](O)CO [Glucose], the “log Keq (complex formation constant, monosaccharides)” value [1] was 1.4.
With OC[C@H]1O[C@H](O[C@@H]2COC(O)(CO)[C@@H](O)[C@@H]2O)[C@H](O)[C@@H](O)[C@@H]1O (some centres unmarked) [Leucrose] the decrease in binding [1] was 1.5 pKeq and the “log Keq (complex formation constant, disaccharides)” value [1] was 1.7.
For OC[C@@H](O)[C@@H](O)[C@H](O)[C@H](O)CO [Mannitol], the “log Keq (complex formation constant, polyols)” value [1] was 2.7.
In the case of O=C[C@@H](O)[C@@H](O)[C@H](O)[C@H](O)CO [Mannose], the “log Keq (complex formation constant, monosaccharides)” value [1] is reported as 1.3.
For OC[C@H]1O[C@H](OC[C@H]2OC(O)(CO)[C@@H](O)[C@@H]2O)[C@H](O)[C@@H](O)[C@@H]1O (some centres unmarked) [Palatinose], the “decrease in the pKeq values of these complexes” value [1] was 0.5 pKeq and the “log Keq (complex formation constant, disaccharides)” value [1] was 2.6.
In the case of O=C[C@H](O)[C@H](O)[C@H](O)CO [Ribose], the “log Keq (complex formation constant, monosaccharides)” value [1] is reported as 1.8.
With OC[C@@H](O)[C@@H](O)[C@H](O)[C@@H](O)CO [Sorbitol] the “log Keq (complex formation constant, polyols)” value [1] was 3.2.
In the case of O=C(CO)[C@H](O)[C@@H](O)[C@H](O)CO [Sorbose], the “decrease in the pKeq values of these complexes” value [1] is reported as 0.5 pKeq and the “log Keq (complex formation constant, monosaccharides)” value [1] is reported as 2.7.
In the case of O=C(CO)[C@@H](O[C@H]1O[C@H](CO)[C@@H](O)[C@H](O)[C@H]1O)[C@H](O)[C@H](O)CO [Turanose], the decrease in binding [1] is reported as 1.5 pKeq and the “log Keq (complex formation constant, disaccharides)” value [1] is reported as 1.6.
With OC[C@@H](O)[C@H](O)[C@@H](O)CO [Xylitol] the “log Keq (complex formation constant, polyols)” value [1] was 2.5.
In the case of NC(Cc1ccc(B(O)O)cc1)C(=O)O (centres unmarked) [hydrochloric acid salts of p-BPA], the pain on injection [2] is given as “causes pain” and the “pH value of solution” value [3] is given as “approximately 1.5”.
For CO[C@H]1O[C@H](CO)[C@@H](O)[C@H](O)[C@H]1O [methyl-α-glucopyranoside], the “binding with l-p-BPA” value [1] was “complete lack of binding” and the “change in the 1H NMR spectrum of l-p-BPA” value [1] was “no change”.
For CO[C@@H]1O[C@H](CO)[C@H](O)[C@H](O)[C@H]1O [methyl-β-galactopyranoside], the “binding with l-p-BPA” value [1] was “complete lack of binding” and the “change in the 1H NMR spectrum of l-p-BPA” value [1] was “no change”.
For N[C@@H](Cc1ccc(B(O)O)cc1)C(=O)O [p-BPA, p-Boronophenylalanine], the “water solubility at physiological pH” value ([4]; pH 7.4, in words) is given as “poor water solubility”, the solubility in water ([4]; water) is given as 1.6 mg/mL (≈ 7.66 mM) and the “p-BPA remaining in solution” value ([5]; fructose, sorbose, or large excess of another carbohydrate or polyol) is given as “all of the p-BPA remains in solution”. For the same compound, the “p-BPA present as its sodium carboxylate” value ([5]; remainder as free acid) was “approximately 90%” and the “uptake by melanoma cells” value (melanoma cells) was “selectively taken up by melanoma cells”.
For [NH3+]C(Cc1ccc([B-]23OC[C@H]4O[C@@](CO)(O2)[C@@H](O3)[C@@H]4O)cc1)C(=O)O (some centres unmarked) [p-BPA-fructose complex], the “osmotic property of solution” value [6] is given as “greatly exceeding its iso-osmotic point with blood”, the toxicity [7] is given as “toxicity observed” and the 10B uptake (murine melanoma model) is given as “increases the ^10 B uptake”.
With [NH3+][C@@H](Cc1ccc([B-]23OC[C@H]4O[C@@](CO)(O2)[C@@H](O3)[C@@H]4O)cc1)C(=O)O [sodium l-p-boronophenylalanine-d-fructose complex] the “stability of the hydrated solution (remains dissolved)” value ([8]; prolonged standing (i.e., 48 hrs) at room temperature) was “remains completely dissolved” and the solubility ([8]; warm water, 60° C.) was roughly 100 mg/mL.
With OC[C@H]1O[C@@](CO)(O[C@H]2O[C@H](CO)[C@@H](O)[C@H](O)[C@H]2O)[C@@H](O)[C@@H]1O [sucrose] the “binding with l-p-BPA” value [1] was “complete lack of binding” and the “change in the 1H NMR spectrum of l-p-BPA” value [1] was “no change”.
With Maltulose the “log Keq (complex formation constant, disaccharides)” value [1] was 3.1 and the “difference in binding constants” value [1] was “lack of appreciable difference in binding constants”.
